Series [1] concerns the target T1, 14-3-3-Q (Homo sapiens, UniProt P27348).
T1 construct: purchased Abchem (so in the source)
T1 sequence (P27348 1-245): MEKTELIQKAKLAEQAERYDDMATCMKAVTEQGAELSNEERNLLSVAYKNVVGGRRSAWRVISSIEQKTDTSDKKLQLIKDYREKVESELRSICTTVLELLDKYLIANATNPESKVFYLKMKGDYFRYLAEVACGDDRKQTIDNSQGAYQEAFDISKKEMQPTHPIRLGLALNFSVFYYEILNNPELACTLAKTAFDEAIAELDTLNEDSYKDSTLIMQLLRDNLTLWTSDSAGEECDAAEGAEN
Nature of the series: Fluorescent thermal shift assay (FTSA) with 14-3-3-Q. Format: binding. As for the experimental part:
His-tagged 14-3-3-E, B, and H plasmids were purchased from Addgene (plasmid ID# 31562, 39128, and 38814, respectively). E. coli (BL21) were transformed with extracted plasmids via heat shock and plated on selected media. Individual colonies were selected, grown, and sequenced to confirm gene presence. 1 L cultures were grown to an OD600 of 0.6 at 37 °C and 220 rpm. Protein expression was induced with 1 mM IPTG and expressed for 12 h at 100 rpm and room temperature (approximately 25 °C). Cells were spun down at 4000 rpm for 15 min at 4 °C and resuspended in lysis buffer containing 50 mM Tris (7.4), 150 mM NaCl, 0.08% DDM, 5 mM imidazole, and 5% glycerol (with an EDTA-free complete mini protease inhibitor cocktail). Cells were lysed via sonication, and the lysate was separated from cell debris by centrifugation at 15,000 rpm, 4 °C, for 45 min. The His-tagged protein was purified using QIAGEN Ni-NTA superflow columns, and the His-tag was removed with TEV protease. His-tag-removed proteins were further purified by size exclusion chromatography. His tag removal and size exclusion chromatography purification were done at the Northwestern University Protein Production core. […]
All of the FTSA experiments were conducted in HEPES buffer (60 mM HEPES, 150 mM NaCl, pH 7.4). […] The fluorescence was measured on a Bio-Rad CFX384 real-time PCR instrument.

A short description of series [2]: PRAPP photolysis under 312 nm UV, followed by HPLC. Type of series: physicochemical. The conditions noted are these: PBS under 312 nm UV irradiation; irradiation at 312 nm, 100 μM in PBS pH 7.4; read-out: photolysis half-life (T1/2). As for the experimental part:
The PRAPP (100 μM) was dissolved in PBS (50 mM, pH 7.4 [1% DMSO v/v]) and irradiated with UV light (λ = 312 nm, 120 V, 60 Hz, 0.2 A [Spectroline model EB-160C], distance ∼4 cm). UV light was removed from the reaction mixtures at varying time points (1, 2, 5, 10, and 20 min) and immediately analyzed by HPLC-UV–vis278 nm (injection volume of 5 μL). PRAPP % remaining was determined based on the area under the curve (AUC) of the UV–vis278 nm chromatogram. A first-order exponential decay curve was generated based on the AUC of the UV–vis chromatogram at 0, 1, 2, 5, 10, and 20 min and used to determine t1/2 of photolysis.

The test system of series [3] is 25 kDa covalently modified band in HAP1 cells. Nature of the series: Photoaffinity labeling with HAP1 wild-type and Hsp27 knockout cells. Format: binding. As to conditions: 15 μM PRAPP. An excerpt: First, we conducted photoaffinity labeling studies with wild-type (WT) HAP1 cells to verify the existence of the 25 kDa covalent modification that we observed in PC12 cells.
Figure 7 Photoaffinity Labeling Experiments with HAP1 cells. […] The nonspecific background modifications remain unchanged with increasing concentration of P3, further confirming the 25 kDa covalently modified band as a true target; (B) comparison of the photoaffinity labeling experiments with HAP1 wild-type (WT) cells and Hsp27 knockout (KO) cells at 15 μM PRAPP concentration.

We go through two molecules from publication PMC10823514, “Target Identification of a Class of Pyrazolone Protein Aggregation Inhibitor Therapeutics for Amyotrophic Lateral Sclerosis” (ACS Central Science, 2023).

In the case of `O=c1cc(COc2cc(Cl)cc(Cl)c2)[nH][nH]1` [P2], in series [1] (SYPRO orange), the “Tm shift (ΔTm)” value came out at 1.1 °C. Further, in series [1] (fit of ΔTm versus concentration, n = 2, read-out: Kd^app), the Kd was determined as 4.32 µM.

On to `C#CCN(Cc1cc(=O)[nH][nH]1)Cc1c(F)c(F)c(N=[N+]=[N-])c(F)c1F` [PRAPP, 5-(((4-Azido-2,3,5,6-tetrafluorobenzyl)(prop-2-yn-1-yl)amino)methyl)-1,2-dihydro-3H-pyrazol-3-one], for which the half-life at 100 μM in series [2] stood at 3.12 min. For the same molecule, the “intensity of the 25 kDa covalently modified band in Hsp27 KO versus WT cells” value in series [3] was “remains unchanged”.
